Measured values reported in US9994536B2, “Compounds and methods of treating neurological disorders” (TORREY PINES INSTITUTE FOR MOLECULAR STUDIES, priority 2014, dated 2018).
Each block holds one compound with its values, some of them ahead of it.

Assays:
[1] = system: soluble APPα, soluble APPβ, Aβ; test: APP processing blots after SAHA, NT2 cells; assay type: cell-based, human
Source text: We utilized a commercially available AlphaLISA detection kit to develop an HTS assay for identification of compounds that increase sAPPα production in CHO cells stably expressing APP751 (7WD10 cells) (FIG. 2.1B). There are several cell lines that have been used extensively in Alzheimer's disease research. For example, NT2 cells are highly used in AD basic and drug discovery research because they are derived from a human embryonal carcinoma cell line and they can be differentiated into post-mitotic neuron-like cells that develop functional dendrites and axons resembling primary neurons of the human brain [39]. NT2 cells also synthesize amyloid precursor protein important in Alzheimer's disease. However, the rate of growth of NT2 cells is much slower than rate of growth of 7WD10s cells, which makes them less HTS-amenable. We have analyzed both 7WD10 and NT2 cells for expression of the hallmark proteins of Alzheimer's disease: soluble APPα, soluble APPβ, Arβ, and membrane-bound full length APP (APP-FL). […] Since it was shown that broad HDAC inhibition results in a decrease of AR and an increase of soluble APPα [41] we tested both cell lines for the effect of application of SAHA (suberoylanilide hydroxamic acid or vorinostat), a pan-HDAC inhibitor [42].

[2] = system: soluble APPα, soluble APPβ, Aβ; test: APP processing blots after SAHA, 7WD10 cells; assay type: cell-based
Method: (§1) Western blot sAPPα release assay. 7WD10 cells were grown in 6-well plates and treated with test compounds and SAHA (vorinostat) at several concentrations in duplicate wells. After 24 h of drug exposure, the conditioned media (CM) was collected, centrifuged to remove cell debris and subjected to SDS-PAGE electrophoresis. sAPPα (6E10, mouse IgG from IBL America ltd) was detected using indicated antibody. To detect APP-FL holoprotein and C-terminal fragments (CTFs, CT15 antibody), the cells were lysed using lysis buffer (1% NP40) with complete protease inhibitor mix (Sigma) supplemented with sodium vanadate and microcystine. Samples were subjected to SDS-PAGE, transferred and immunoblotted with indicated antibodies and detected by enhanced chemiluminescence method. Quantification of Western blot signals was done using ImageJ software.
We utilized a commercially available AlphaLISA detection kit to develop an HTS assay for identification of compounds that increase sAPPα production in CHO cells stably expressing APP751 (7WD10 cells) (FIG. 2.1B). There are several cell lines that have been used extensively in Alzheimer's disease research. […] We have analyzed both 7WD10 and NT2 cells for expression of the hallmark proteins of Alzheimer's disease: soluble APPα, soluble APPβ, Arβ, and membrane-bound full length APP (APP-FL). […]

TrkA = TrkA (Homo sapiens, UniProt P04629); test: Table of THPI-244 analogs: TrkA increase
Chain of TrkA (P04629 33-796, species assumed): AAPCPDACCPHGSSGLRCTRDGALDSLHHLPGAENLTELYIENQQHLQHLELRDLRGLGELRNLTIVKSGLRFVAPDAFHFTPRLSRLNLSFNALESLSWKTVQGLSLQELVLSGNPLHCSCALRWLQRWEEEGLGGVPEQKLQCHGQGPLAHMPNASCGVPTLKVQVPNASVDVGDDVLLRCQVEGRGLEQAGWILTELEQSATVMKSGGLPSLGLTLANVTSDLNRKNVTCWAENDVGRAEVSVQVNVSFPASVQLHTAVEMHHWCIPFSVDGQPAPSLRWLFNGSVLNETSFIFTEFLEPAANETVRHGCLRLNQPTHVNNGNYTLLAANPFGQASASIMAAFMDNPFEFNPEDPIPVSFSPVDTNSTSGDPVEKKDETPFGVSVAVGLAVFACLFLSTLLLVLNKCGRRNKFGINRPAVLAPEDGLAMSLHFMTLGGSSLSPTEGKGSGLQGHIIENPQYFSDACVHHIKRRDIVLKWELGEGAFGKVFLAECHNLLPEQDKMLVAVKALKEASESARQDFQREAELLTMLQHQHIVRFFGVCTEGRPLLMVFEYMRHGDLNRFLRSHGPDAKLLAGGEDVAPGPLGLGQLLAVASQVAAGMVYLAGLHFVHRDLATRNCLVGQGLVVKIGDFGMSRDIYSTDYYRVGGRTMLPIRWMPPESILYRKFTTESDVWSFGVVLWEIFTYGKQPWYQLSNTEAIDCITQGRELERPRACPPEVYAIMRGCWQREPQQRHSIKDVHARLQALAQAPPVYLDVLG

sAPPα [3] = test: sAPPα ELISA, NT2 cells stably expressing APP751; assay type: cell-based, human; conditions: 24 h
Method: (§2) (5). To confirm the effect of THPI-244 on sAPPα levels in a neuronal cell line and by a tertiary assay, we exposed human Neuron-committed Teratocarcinoma cell line (NT2) stably expressing human APP751 to different concentrations of THPI-244 for 24 h and compared with that of Bryostatin, a classical activator of PKC known to stimulate sAPPα release. […] Levels of sAPPα were measured by ELISA using commercially available kit (cat #27734, IBL-America, Minneapolis, Minn., USA). […] Similar biphasic effect of Bryostatin was confirmed for Aβ42 also, measured again in NT2 stable cells by ELISA (cat #KHB3441, Life Technologies, Grand Island, N.Y., USA). Consistent with sAPPα, THPI-244 decreased Aβ42 levels dose-dependently starting from 50 nM (28%, p<0.05) to 2000 nM (64%, p<0.001) (n=4 independent experiments) (FIG. 1.7). Thus THPI-244 increased non-amyloidogenic processing of APP in NT2 cells.

Aβ42 = Aβ42 ELISA, NT2 stable cells; assay type: cell-based, human
Method: as §2

sAPPα [4] = test: sAPPα ELISA, fibroblasts derived from AD patients; assay type: cell-based, human; conditions: 24 h
Method: (1). […] Therefore, we first used fibroblasts derived from AD patients (AG06263C, Coriell Cell repository, supported by NINDS/NIH) and exposed to THPI-244 for 24 h and measured sAPPα release by ELISA as done above for NT2 cells. […] We also confirmed dose-dependent effect of THPI-244 on sAPPα levels in human primary neurons transiently transfected with APP751 with Swedish mutation which is trafficked differently from WT APP and releases more sAPPα. Human neurons were grown on specially coated glass coverslips (cat #GG-18-PDL, NeuVitro, Germany). We could reproducibly achieve nearly 30% transfection efficiency using a nanoparticle based transfection reagent called Neuromag (cat #NM150299, OZ Biosciences, France).

[5] = system: sAPPα in supernatants of 7WD10 cells; test: Western blot sAPPα release assay, 7WD10 cells; assay type: cell-based; conditions: 10 nM, 7WD10 supernatant
Method: (2). To ascertain that hits identified as a result of AlphaLISA assay are not due to artifacts of the detection system, the sAPPα levels were measured by Western blots as a secondary assay downstream of primary HTS to confirm hits or discard artifacts of the AlphaLISA assay. The assay was performed using a range of concentrations of hit compounds (10-5,000 nM). A hit compound named thiazole piperazine #244 (THPI-244) and THPI-326 induced dose-dependent increase of sAPPα in supernatants of 7WD10 cells (FIG. 1.3). […] Since compound THPI-244 increased sAPPα levels more than THPI-326, we focused on THPI-244 for further validation.
as §1, with “To detect APP-FL holoprotein and C-terminal fragments (CTFs, CT15 antibody), the cells were lysed using lysis buffer (1% NP40) with complete protease inhibitor mix (Sigma) supplemented with sodium vanadate and microcystine.” left out

[6] = system: sAPPα released from 7WD10 cells (CHO cells stably expressing APP751); test: AlphaLISA sAPPα release assay (pilot HTS); assay type: cell-based
Method: (1). The pilot screen was performed using five 384 well plates. […] FDA approved oncology set was screened at 10 μM final assay concentration, while thiazole derivatives were screened at 5 μM. Seven hits from thiazole derivatives were identified using Ave+3SD rule (45) as a nominal cutoff for hit determination (FIG. 1.1 (bottom)). The hits represented a novel piperazine thiazole chemotype (FIG. 1.2).
Pilot screen of AlphaLISA sAPPα release assay. 8 μL of assay media (DMEM supplemented with 10% FBS and 1× Penicillin/Streptomycin) containing 20,000 cells were added to all wells of the assay plate, except column 1 where only media was added. Plates were incubated for 4 h at 37° C., 5% CO2, 95% RH after which 80 nL of test compounds in DMSO or DMSO alone were added to respective wells using a pin tool device (VP Scientific, San Diego). After 24 h of incubation at 37° C., 5% CO2, 95% RH, sAPPα AlphaLISA beads were added in 10 μL of buffer, equilibrated for 1 h, and AlphaLISA signal was measured using a Biotek H4 Synergy microplate reader (Biotek Inc). Three parameters were calculated on a per-plate basis: (a) the signal-to-background ratio (S/B); (b) the coefficient for variation [CV; CV=(standard deviation/mean)×100)] for all compound test wells; and (c) the Z′-factor [31]. Nominally active compounds from the pilot screen were determined using mean plus 3 times the standard deviation (Mean+3SD) was used as the cut-off.
In the absence of known pharmacological agents capable of inducing an increase of sAPPα release, we tested a small molecule (FIG. 2.4A insert, compound 1 in [2]) shown to decrease Aβ release. It was shown that decrease of Aβ release could be accompanied by the increase of soluble APPα, which has a neuroprotective effect. Compound 1 was tested using 20,000 cells/well in the range of 1.2-100 μM using 3-fold serial dilutions and 24 h incubation as an assay endpoint. Increase of sAPPα release was observed only in wells where 100 μM of compound 1 was added either with or without FBS (FIG. 2.4A). Viability of cells was also tested in the presence of 1.2-100 μM of compound 1 to ascertain that the increase of sAPPα release is not due to excessive cell death. Consistent with the above described results, cells were less viable in the absence of FBS. In the presence of 1.2-33 μM of compound 1, cells were approximately 10% less viable than untreated control either with or without FBS (FIG. 2.4B).
To evaluate the ability of the assay to identify compounds that increase the release of sAPPα a pilot screen was conducted using FDA approved oncology set (n=101) and TPIMS heterocycles library (n=700). The pilot screen was performed using five 384 well plates. […]

human sAPPα = test: sAPPα release ELISA, 7WD10 cells; assay type: cell-based; conditions: 24 h
Method: Starting from p-methylbenzhydrylamine hydrochloride (MBHA.HCl) resin; we developed different approaches toward the diversity oriented solid-phase parallel synthesis of different aminothiazole compounds 1-6 (Scheme 1) (Micheals, H A et al., 2014, ACS Comb. Sci. 16, 1-4; Nefzi, A et al., 2010, J. Org. Chem. 75, 7939-7941). 575 thiazole compounds were synthesized and were tested for sAPPα increasing activity using CHO cells stably expressing APP751wt. For initial screenings we used a cell-based human sAPPα ELISA kit (cat #27734, IBL Co., ltd, Japan) following instructions from the manufacturer. The method involves sandwich ELISA and use of two specific antibodies and tetra methyl benzidine as a coloring agent. […]
sAPPα and Aβ40 release ELISA assay. […] The principle of the method is based on the use of tetra methyl benzidine (TMB) as a chromogen and the strength of the generated color is proportional to the quantities of human sAPPα. […] Plates were incubated with chromogen solution for 30 minutes, and read at 450 nm after adding stop solution. Levels of Aβ40 in the CM treated with different concentrations of compound 1 as detailed above were measured by sandwich ELISA exactly as described previously. Aβ40 was captured with Ab9 antibody (epitope, 1-16 of Aβ40) and detected with horseradish peroxidase-conjugated Ab13.1.1 antibody (epitope, 35-40 of Aβ40).

SMILES: O=C(CCCCCCC(=O)Nc1ccccc1)NO [SAHA, suberoylanilide hydroxamic acid]
change of Aβ [1]: decrease
change of Aβ [2]: decrease

% TrkA ⬆ (TrkA): 54%
SMILES: c1ccc(CCNc2nc(CN3CCCCC3)cs2)cc1 [TPI-2336-100]

% TrkA ⬆ (TrkA): 51%
SMILES: c1ccc(CCNc2nc(CN3CCOCC3)cs2)cc1 [TPI-2336-99]

SMILES: CCC/C=C/C=C/C(=O)O[C@H]1/C(=C/C(=O)OC)C[C@H]2C[C@H]([C@@H](C)O)OC(=O)C[C@H](O)C[C@@H]3C[C@H](OC(C)=O)C(C)(C)[C@](O)(C[C@@H]4C/C(=C/C(=O)OC)C[C@H](/C=C/C(C)(C)[C@]1(O)O2)O4)O3 [Bryostatin, reference compound]
effect on sAPPα release (sAPPα [3]): increased sAPPα at low nM concentrations, but then decreased levels dose-dependently
lowest concentration with significant increase of sAPPα (sAPPα [3]): 10 nM
lowest concentration with significant decrease of Aβ42 (Aβ42): 10 nM
lowest concentration with significant increase of sAPPα (sAPPα [4]): 10 nM

% TrkA ⬆ (TrkA): 69%
SMILES: Cc1cnc(C(=O)N[C@H](CNc2nc(CN3CCNCC3)cs2)c2ccccc2)cn1 [TPI-2336-55]

SMILES: CCC(C)C(=O)N1CCN(Cc2csc(NC[C@H](Cc3ccc(O)cc3)NC(=O)Cc3ccccc3)n2)CC1 (stereo partly drawn) [THPI-326]
increase of sAPPα over untreated control cells (Western blot) [5]: 2 fold
increase of Alpha signal (sAPPα release) ([6]; 5 μM, 7WD10 cells, 24 h): ~2 fold

SMILES: O=C(NCCSCc1cccc(Cl)c1)c1c(Cl)cccc1Cl [compound 1, 2,6-dichloro-N-{2-[(3-chlorobenzyl)thio]ethyl}benzamide, reference compound]
increase of sAPPα over untreated control cells (ELISA) (human sAPPα; 100 μM): 2 fold
maximal increase of sAPPα (ELISA) (human sAPPα; 150 μM): 3 fold
increase of AlphaLISA signal ([6]; 100 μM compound 1): 2 fold
concentration at which increase of sAPPα release was observed ([6]; range 1.2-100 μM, 24 h, with or without FBS): 100 µM
